# Assay results: patent publication US9314525B2 (Axelar AB, priority 2010, dated 2016)
# Experiments:
# [1] = Solubility in 1% SDS in water by LC-UV; format: physicochemical; conditions: after 24 hours rotation, ambient temperature
# Experimental: The solubility was determined in triplicate by use of LC-UV chromatography. […] The substance was rotated in the specific medium at ambient temperature for 24 hours, followed by filtering the supernatant using a hydrophilic PVDF (Millipore Corp.) 0.22 μm filter. The samples were then diluted with a 1:1 mixture of mobile phase A and B (see below) and analyzed using an Xterra™ MS C18, 50×2.1 mm column with UV detection at 288 nm. The mobile phase consisted of acetonitrile, water and trifluoroacetic acid, 5:95:0.1 (A) and 99:1:0.1 (B).
# Solubility determinations were performed in 1% sodium dodecyl sulfate (SDS) in water.
# [2] = biological target: insulin-like growth factor-1 receptor (IGF-1R) (Homo sapiens, UniProt P08069); conditions: disclosed in WO 02/102804; cited from earlier work
# [3] = Slurry experiments with mixture of polymorphs B and C in saturated picropodophyllin solutions; format: physicochemical
# Experimental: The solid was filtered off and the saturated picropodophyllin solutions were used in the slurry experiment below.
# The solid was filtered off using a glass filter and stored at ambient conditions for 2 hours.
# The solid was filtered off using a glass filter and left on the glass filter for 30 minutes.
# The slurry was slowly stirred overnight. The slurry was removed from the oil bath and immediately filtered through a glass filter. The solid was left on the glass filter for 30 minutes.
# The slurry was slowly stirred for 4 hours. The slurry was removed from the oil bath and immediately filtered through a glass filter. The solid was left on the glass filter for 30 minutes.
# [4] = Three month solid state stability study (appearance, XRPD, TGA); format: physicochemical; conditions: for TGA mass loss from ambient temperature to 150° C.: after 3 months storage at 40° C./75% RH; for Change in appearance: open containers
# Experimental: Analysis was made by using X-Ray Powder Diffration (XRPD) and Thermogravimetry (TGA).
# Experiments were run as described above using Cu Kα1 radiation (45 kV and 40 mA) at ambient temperature and humidity. Scans were run in continous scan mode in the range 2-50° 2θ using automatic divergence and antiscatter slits with observed length of 10 mm, a step size of 0.013° 2θ and a common counting time of 97.920 seconds.
# (§1) Thermogravimetry (TGA) was performed on a Seiko TG/DTA 6200 and open 90 μl Pt-pans with ca 10 to 20 mg of sample and a nitrogen flow of 200 mL/min. The temperature program was ambient (20° C.) to 400° C. with a heating rate of 10° C./min. A blank was subtracted and the TG data was normalized with respect to sample size and analyzed using the Muse Standard Analysis software, version 6.1 U.
# [5] = Physical stability of polymorphs stirred in water, sonicated or mortared (XRPD); format: physicochemical; conditions: for Solid form by XRPD after stirring in water: slurry in water rotated for 24 hours
# Experimental: The slurry was centrifuged and the supernatant was removed. The solid was dried under vacuum overnight and the sample was thereafter, stored at ambient conditions.
# The slurry was centrifuged 3000 rpm for 10 minutes and the supernatant was removed. The solid was freezed (in a freezer) and freeze-dried overnight. The sample was kept at ambient conditions for 2 hours before the XRPD analysis.
# [6] = Thermogravimetric analysis (TGA); format: physicochemical; conditions: initial analysis
# Experimental: as §1, with “Thermogravimetric analysis (TGA)” for “Thermogravimetry (TGA)”, “to 25” for “to 20”, “200 ml/min.” for “200 mL/min.”, “6.1 U (Seiko, Japan).” for “6.1 U.”
# [7] = Dynamic Vapour Sorption (DVS) hygroscopicity; format: physicochemical; conditions: from 0 to 90% RH, 25° C.
# Experimental: The hygroscopicity of the samples was studied by Dynamic Vapor Sorption Gravimetry (DVS) using a DVS-1 (Surface Measurement Ltd., UK).
# Each sample was run in three consecutive full cycles. The condition to proceed to the next level of RH was a weight increase below or equal to 0.001% within 15 minutes, with a maximum total time per step of 24 hours. The temperature was kept at 25° C.
# [8] = Powder dissolution profiling (intrinsic dissolution rate and apparent solubility) in PhB 6.5 and FeSSIF pH 6.5
# Experimental: Phosphate buffer pH 6.5 (PhB 6.5) was prepared according to a protocol by Galia and co-workers (Galia, E., et al. Evaluation of various dissolution media for predicting in vivo performance of class I and II drugs. Pharm Res 15, pp. 698-705 (1998)). Briefly, 1000 mL of […] Na2HPO4 buffer pH 6.5 was prepared by dissolving 3.95 g Na2HPO4xH2O, 6.19 g NaCl and 0.42 g NaOH in a volumetric flask by adding purified water. The pH was adjusted to pH to 6.5 by titration with 0.5 M NaOH and the volume was adjusted to 1000 mL with purified water. This buffer was sterile filtered and thereafter stored in refrigerator. Fed state simulated intestinal fluid (FeSSIF pH 6.5) was prepared fresh on the day of the experiment by dissolving 1.12 g of Na-taurocholate/lecithin powder (ePhares, Switzerland) in 100 mL PhB ((Galia, E., et al. Evaluation of various dissolution media for predicting in vivo performance of class I and II drugs. Pharm Res 15, pp. 698-705 (1998)). The media was stirred and preheated to 37±1° C. resulting in clear solution of pH 6.5 which contained a mixed micelle system of 15 mM taurocholate and 3.75 mM lecithin.
# Dissolution rate and apparent solubility was measured with the pDISS Profiler™ (pION INC, MA, USA) from 0.3-1.3 mg compound weighed into the vial to which the preheated (37° C.) dissolution medium was added. […] Each UV probe was calibrated with its own standard curve prior to the experiment. The obtained results were analysed with the software accompanying the pDISS equipment.
# The detailed procedure of the powder dissolution experiments, including the theoretical background, can be found in Avdeef, A., Tsinman, K., Tsinman, O., Sun, N. & Voloboy, D. Miniaturization of powder dissolution measurement and estimation of particle size. Chem Biodivers 6, 1796-1811 (2009); in Fagerberg, J. H., et al. Dissolution Rate and Apparent Solubility of Poorly Soluble Drugs in Biorelevant Dissolution Media. Mol Pharm 7, 1419-1430, (2010); and in Tsinman, K., Avdeef, A., Tsinman, O. & Voloboy, D. Powder dissolution method for estimating rotating disk intrinsic dissolution rates of low solubility drugs. Pharm Res 26, 2093-2100 (2009).
# [9] = listed as picropodophyllin polymorph B
# [10] = listed as picropodophyllin polymorph C
# insulin-like growth factor-1 receptor (IGF-1R), sequence (P08069 31-1367, species assumed): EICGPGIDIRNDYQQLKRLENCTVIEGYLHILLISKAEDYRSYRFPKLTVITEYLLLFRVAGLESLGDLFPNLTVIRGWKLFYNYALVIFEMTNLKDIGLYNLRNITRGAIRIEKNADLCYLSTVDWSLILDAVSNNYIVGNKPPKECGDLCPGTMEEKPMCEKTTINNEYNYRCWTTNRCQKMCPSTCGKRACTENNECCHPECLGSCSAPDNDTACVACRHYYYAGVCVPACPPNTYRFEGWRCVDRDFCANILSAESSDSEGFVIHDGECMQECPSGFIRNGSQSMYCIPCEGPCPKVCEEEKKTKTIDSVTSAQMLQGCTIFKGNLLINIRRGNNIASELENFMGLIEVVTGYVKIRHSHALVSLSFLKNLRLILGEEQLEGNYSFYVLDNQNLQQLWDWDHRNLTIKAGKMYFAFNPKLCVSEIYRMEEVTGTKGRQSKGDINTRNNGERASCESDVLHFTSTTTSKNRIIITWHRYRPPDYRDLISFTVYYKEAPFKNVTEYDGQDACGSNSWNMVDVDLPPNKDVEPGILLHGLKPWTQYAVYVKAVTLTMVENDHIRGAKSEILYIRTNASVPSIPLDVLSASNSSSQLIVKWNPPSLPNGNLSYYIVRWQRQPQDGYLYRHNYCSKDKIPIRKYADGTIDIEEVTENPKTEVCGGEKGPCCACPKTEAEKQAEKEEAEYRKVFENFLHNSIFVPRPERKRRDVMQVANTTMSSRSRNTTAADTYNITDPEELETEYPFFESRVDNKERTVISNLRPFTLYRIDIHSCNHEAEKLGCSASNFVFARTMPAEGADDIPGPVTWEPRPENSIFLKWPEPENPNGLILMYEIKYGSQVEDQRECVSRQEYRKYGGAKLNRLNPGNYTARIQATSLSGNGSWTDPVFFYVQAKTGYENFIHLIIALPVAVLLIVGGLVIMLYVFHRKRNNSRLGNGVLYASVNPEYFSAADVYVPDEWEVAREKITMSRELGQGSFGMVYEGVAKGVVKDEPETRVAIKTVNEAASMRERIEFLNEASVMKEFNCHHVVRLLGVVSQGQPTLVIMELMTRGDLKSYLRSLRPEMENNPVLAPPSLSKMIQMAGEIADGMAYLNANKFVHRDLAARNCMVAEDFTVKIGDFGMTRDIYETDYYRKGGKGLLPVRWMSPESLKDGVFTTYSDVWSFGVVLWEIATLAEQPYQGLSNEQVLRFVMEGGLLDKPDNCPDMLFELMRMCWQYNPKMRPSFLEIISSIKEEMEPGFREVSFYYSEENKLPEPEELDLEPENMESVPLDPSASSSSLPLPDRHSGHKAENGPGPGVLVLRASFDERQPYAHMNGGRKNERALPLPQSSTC
smiles,measurement,setting,value
"COc1cc(C2c3cc4c(cc3C(O)[C@H]3COC(=O)[C@@H]23)OCO4)cc(OC)c1OC (stereo partly drawn) [picropodophyllin monohydrate, reference compound]",Solubility in 1% SDS in water,[1]; monohydrate,200 µg/mL
COc1cc([C@@H]2c3cc4c(cc3[C@H](O)[C@H]3COC(=O)[C@@H]23)OCO4)cc(OC)c1OC [picropodophyllin],Inhibition of IGF-1R,[2],specific and potent inhibitor
"COc1cc([C@@H]2c3cc4c(cc3[C@H](O)[C@H]3COC(=O)[C@@H]23)OCO4)cc(OC)c1OC [polymorph B, picropodophyllin]",Solid form obtained from slurry of polymorphs B and C,"[3]; acetone saturated with picropodophyllin, five days, ambient temperature",converted to polymorph C
same,Solid form obtained from slurry of polymorphs B and C,"[3]; ethyl acetate saturated with picropodophyllin, five days, ambient temperature",converted to polymorph C
same,Solid form obtained from slurry of polymorphs B and C,"[3]; mesitylene saturated with picropodophyllin, five days, ambient temperature",converted to polymorph C
same,Solid form obtained from slurry of polymorphs B and C,"[3]; mesitylene, 70° C., overnight",converted to polymorph C
same,Solid form obtained from slurry of polymorphs B and C,"[3]; mesitylene, 120° C., 4 hours",converted to polymorph C
same,"Solid-state instability (XRPD, TGA)",[4]; 3 months storage at 25° C./60% RH,does not show any sign(s) of solid-state instability
same,"Solid-state instability (XRPD, TGA)",[4]; 3 months storage at 40° C./75% RH,does not show any sign(s) of solid-state instability
same,TGA mass loss from ambient temperature to 150° C.,[4]; [9],0.0±0.1%
same,Change in appearance,[4]; 3 months at 25° C./60% RH,no change in appearance
same,Change in appearance,[4]; 3 months at 40° C./75% RH,no change in appearance
same,Solid form by XRPD after stirring in water,[5],converted to a mixture of mainly picropodophyllin monohydrate and some picropodophyllin polymorph B
same,solubility at 24 h,"[1]; 1% SDS in water, aqueous with cosolvent or surfactant or cyclodextrin, thermodynamic from solid",700 µg/mL
same,TGA mass loss from ambient temperature to 150° C.,[6]; [9],0.0±0.1%
same,DVS mass increase,[7],0.2%
same,Apparent Solubility assay 1,"[8]; FeSSIF pH 6.5, 37° C., assay time polymorph B 16 hours, polymorph C 1.3 hours, triplicate",25.51 ± 0.51 µg/mL
same,Solubility increase in FeSSIF as compared to PhB 6.5,[8]; FeSSIF pH 6.5 vs PhB 6.5,2.2 fold
same,Apparent Solubility assay 1,"[8]; PhB 6.5, 37° C., assay time polymorph B 19 hours, polymorph C […], mean ± SD, triplicate",11.72 ± 0.22 µg/mL
"COc1cc([C@@H]2c3cc4c(cc3[C@H](O)[C@H]3COC(=O)[C@@H]23)OCO4)cc(OC)c1OC [polymorph C, picropodophyllin]",TGA mass loss from ambient temperature to 150° C.,[4]; [10],0.1±0.1%
same,Solid form by XRPD after sonication,"[5]; in purified water, cooled on ice, sonicated for 5 minutes",no phase change occurred
same,Solid form by XRPD after mortaring,[5]; mortared for 5 minutes in agate mortar,no phase change occurred
same,Solid form by XRPD after stirring in water,[5]; [10],no phase change occurred
same,Solubility in 1% SDS in water,[1]; [10],400 µg/mL
same,TGA mass loss from ambient temperature to 150° C.,[6]; [10],0.1±0.1%
same,solubility,"[8]; 37 °C, pH 6.5, aqueous buffer, thermodynamic from solid, Apparent Solubility Assay 1 + 2, PhB 6.5, 37° C., assays 1 and 2 combined, mean ± SD",5.85 ± 0.25 µg/mL
same,solubility,"[8]; 37 °C, pH 6.5, aqueous buffer, thermodynamic from solid, Apparent Solubility assay 1, PhB 6.5, 37° C., assay time polymorph B 19 hours, polymorph C […], mean ± SD, triplicate",5.88 ± 0.09 µg/mL
same,solubility at 50 min,"[8]; 37 °C, pH 6.5, aqueous buffer, thermodynamic from solid, Apparent Solubility assay 2, PhB 6.5, 37° C., assay time 29 hours (value obtained after 50 minutes), mean ± SD, triplicate",5.81 ± 0.38 µg/mL
same,solubility,"[8]; 37 °C, pH 6.5, fessif, thermodynamic from solid, Apparent Solubility Assay 1 + 2, FeSSIF pH 6.5, 37° C., assays 1 and 2 combined",12.6 ± 0.8 µg/mL
same,solubility at 25 h,"[8]; 37 °C, pH 6.5, fessif, thermodynamic from solid, Apparent Solubility assay 2, FeSSIF pH 6.5, 37° C., assay time 25 hours, triplicate",12.2 ± 1.07 µg/mL
